Source: patent publication US12448655B2, “Antibiotic susceptibility of microorganisms and related methods and systems” (CALIFORNIA INSTITUTE OF TECHNOLOGY, priority 2017, dated 2025)

How the values were obtained:
Neisseria gonorrhoeae [1] = assay: Minimum inhibitory concentrations (MICs) of Neisseria gonorrhoeae clinical isolates; type: cell-based
Protocol: Isolates and agar-dilution MIC testing. Isolates were provided by the University of Washington Neisseria Reference Laboratory and the Centers for Disease Control (CDC) Antibiotic Resistance Isolate Bank Neisseria gonorrhoeae panel (SINuca-Table). MICs of the CDC AR Isolate Bank are reported by the CDC [10], and MIC of all other isolates were determined by agar dilution according to the Clinical and Laboratory Standards Institute (CLSI) guidelines.

Neisseria gonorrhoeae [2] = assay: AST by inaccessible DNA, 1 incubation step with Triton X-100 and DNaseI, qPCR (Example 1); type: cell-based
Protocol: An antibiotic susceptibility test can be performed with methods herein described comprising 15-minute co-incubation of the sample with antibiotics and an enhancing treatment followed by cell lysis, and detection of differences in amounts of detected DNA between the antibiotic-susceptible and a corresponding control but not in antibiotic-resistant NG isolates with respect to a corresponding control.
For each isolate, two incubation tubes were prepared in 2 mL purple cap tubes (VWR Cat #89004-298), following the indication in table x below, titled “Antibiotic Exposure per 500 μL”. Add Triton X (enhancer), DNaseI (Cat: M0303L) (degrader), NaHCO3 (conditioner).
The antibiotic incubation/exposure was performed on a heat-shake block fit to 2 mL purple cap tubes (VWR Cat #89004-298). The particular shake-block was measured with a thermocouple to ensure the temperature inside the tubes with 500 μL of media is 37° C. (settings 38° C. and 1000 rpm shaking), qPCR was used for NA amplification
Extraction was performed following “DEB Extraction” description in the general methods using Eppendorf tubes. Vortex samples briefly (2 seconds) and centrifuge before transferring 10 μL of the sample to 90 μL of the extraction buffer. • 9. Optionally, continue incubation of the treated and untreated samples for a control of the antibiotic efficacy over >15 minute exposures
The “qPCR” description in the general methods was followed. All DEB-extracted DNA were quantified using a primer mix=(10 µM forward and reverse) targeting N. gonorrhoeae porA gene. Samples were run in qPCR triplicates (10 μL reactions) at an annealing temperature 62° C. The primers target the porA gene. • 11. Data analysis is performed on the raw cq measurements obtained from the qPCR instrument

E. coli isolates = assay: Quantification of DNA release following antibiotic exposure, filtration and ddPCR (Example 27); type: cell-based, Escherichia coli; set-up: dose or concentration left out as unconfirmed; conditions: 15 min exposure, 0.22 μm filtration, ddPCR
Protocol: Filtration experiments. Filtration experiments were performed using E. coli isolates exposed to 0.5 μg/mL ertapenem for 15 min. Immediately following exposure, cultures were passed through 0.22 μm, 1.5 mL cellulose acetate centrifuge tube filters (Corning Costar Spin-X, Corning, NY) by adding 50 μL of sample to the filter and centrifuging for 4 minutes at 1000 ref. DNA was extracted from both the feed and filtrate using QuickExtract DNA Extraction Solution (Lucigen, Middleton, WI, USA). Samples were diluted 10× into extraction buffer and extracted according to manufacturer instructions. The concentration of the single copy E. coli uidA gene was then quantified in the feed and filtrate extractions. The percentage of E. coli DNA in the filtrate was calculated as the filtrate concentration divided by the feed concentration. Droplet digital PCR (ddPCR) was performed using QX200 ddPCR Supermix for EvaGreen (BioRad). 10% of the final reaction volume was template. Published primers targeting the uidA gene in E. coli were used at a final concentration of 500 nM. Cycling conditions consisted of 5.0 min at 95° C., followed by 40 cycles of 95° C. for 30 sec, 60° C. for 30 sec, and 72° C. for 30 sec., with final dye stabilization steps of 4° C. for 5.0 min followed by 90° C. for 5.0 min.
To investigate the mechanism of pol-aAST, experiments were performed to separate free NAs from NAs contained within structurally intact cells or associated with cell debris. Susceptible and resistant clinical isolates were exposed to β-lactams for 15 min, then filtered through […] filters to remove cells from free NAs. NAs in the sample and eluate were then quantified using droplet digital PCR (ddPCR).

Ng isolates = assay: nuc-aAST time-course without enhancing step (Example 32); type: cell-based, Neisseria gonorrhoeae; conditions: two PEN-S and two PEN-R Ng isolates; DNase I present; no enhancing step
Protocol: nuc-aAST time-course without enhancing step. Working cultures of Ng isolates were prepared as described in “Ng culture preparation.” Incubation at 37° C. was performed in 100 μL reaction volumes in PCR tube strips on a BioRad C1000 Thermal Cycler. Treated samples consisted of 77.5 μL MHB, 2.5 μL NaHCO3 (200 mM), 5 μL DNase I (2 U/μL), 5 μL PEN (20 μg/mL), and 10 μL working Ng isolate culture. PEN was replaced with NF—H2O in control samples. A 10 μL aliquot of each sample was extracted at 15, 30, 45, 60, 90, and 120 min and diluted 10× in QuickExtract DNA Extraction Solution (Lucigen, Middleton, WI, USA), then heated for 6 min at 65° C. followed by 4 min at 98° C. on a BioRad C1000 Thermal Cycler. All sample handling following antibiotic exposure was performed using a multichannel pipette; qPCR and calculation of % accessibility were performed as described above.
β-lactams should primarily affect peptidoglycan, and should not have a major impact on the outer membrane, which serves as a structural element in Gram-negative bacteria. Therefore, it is expected the primary mechanism behind any increase in accessibility to be cell lysis as a result of exposure to β-lactams, leading to release of genomic DNA to the extracellular environment containing DNase. […]

Compound	Antibiotic MICs (Neisseria gonorrhoeae [1]; isolate ng_1) [µg/mL]	Antibiotic MICs (Neisseria gonorrhoeae [1]; isolate ng_2) [µg/mL]	Antibiotic MICs (Neisseria gonorrhoeae [1]; isolate ng_3) [µg/mL]	Antibiotic MICs (Neisseria gonorrhoeae [1]; isolate ng_4) [µg/mL]	Antibiotic MICs (Neisseria gonorrhoeae [1]; isolate ng_5) [µg/mL]	Antibiotic MICs (Neisseria gonorrhoeae [1]; isolate ng_6) [µg/mL]	Antibiotic MICs (Neisseria gonorrhoeae [1]; isolate ng_12) [µg/mL]	Antibiotic MICs (Neisseria gonorrhoeae [1]; isolate ng_15) [µg/mL]	Antibiotic MICs (Neisseria gonorrhoeae [1]; isolate ng_16) [µg/mL]	Antibiotic MICs (Neisseria gonorrhoeae [1]; isolate ng_17) [µg/mL]	Antibiotic MICs (Neisseria gonorrhoeae [1]; isolate ng_18) [µg/mL]	Antibiotic MICs (Neisseria gonorrhoeae [1]; isolate ng_19) [µg/mL]	Antibiotic MICs (Neisseria gonorrhoeae [1]; isolate ng_20) [µg/mL]	Antibiotic MICs (Neisseria gonorrhoeae [1]; isolate ng_30) [µg/mL]	Antibiotic MICs (Neisseria gonorrhoeae [1]; isolate ng_41) [µg/mL]	Antibiotic MICs (Neisseria gonorrhoeae [1]; isolate ng_44) [µg/mL]	other results
CO/N=C(\C(=O)N[C@@H]1C(=O)N2C(C(=O)O)=C(CSc3nc(=O)c(=O)[nH]n3C)CS[C@H]12)c1csc(N)n1 [CRO, ceftriaxone]	≤0.008	<0.008	≤0.008	0.030	0.015	≤0.008	0.015	≤0.008	≤0.008	≤0.008	0.030	0.015	≤0.008	0.500	0.125	≤0.008	Antibiotic MICs (Neisseria gonorrhoeae [1]; isolate ng_15, listed as ceftriaxone): < 0.008 µg/mL; Antibiotic MICs (Neisseria gonorrhoeae [1]; isolate ng_17, listed as ceftriaxone): ≤ 0.008 µg/mL; Antibiotic MICs (Neisseria gonorrhoeae [1]; isolate ng_30, listed as ceftriaxone): 0.05 µg/mL; Cqs of treated sample compared with control (no ABX) (Neisseria gonorrhoeae [2]; ceftriaxone-resistant isolate ng_30, 15-minute incubation with 1% TritonX-100 and DNaseI): not distinguishable from the control; difference in relative concentrations (inaccessible DNA) control vs treated (Neisseria gonorrhoeae [2]; ceftriaxone-susceptible isolate ng_3, 15-minute incubation with 1% TritonX-100 and DNaseI): 11 fold; Cq difference between control and antibiotic-treated sample (FIG. 3 bars (a) and (b)) (Neisseria gonorrhoeae [2]; ceftriaxone-susceptible isolate ng_3, 15-minute incubation with 1% TritonX-100 and DNaseI in MH media): 3.5 Cq; average percentage of DNA released from susceptible isolates (E. coli isolates): 6%
penicillin	0.250	0.250	0.250	0.500	1.000	0.250	0.500	0.015	0.015	0.060	2.000	2.000	0.060	1.000	2.000	8.000	exposure time at which percentage accessibility differed significantly between susceptible and resistant isolates (Ng isolates): 90 min
